According to patent US10544112B2, “Identification of ebsulfur analogues with broad-spectrum antifungal activity” (priority 2017, dated 2020):
≈ marks a conversion by molar mass, not a printed value.

Assays:
[1] = tested on: Aspergillus nidulans ATCC 38163 (strain L); test: Antifungal MIC determination, filamentous fungi spores; type: cell-based; settings: strain L; spores
Method: (§1) Fungal MIC determination experiments were performed using untreated 96-well plates (Corning). Cells were counted either by using a hemocytometer (Hausser Scientific, Horsham, Pa., USA) or by measuring optical density at attenuance of 600 nm (OD600) by using a Genesys 20 spectrophotometer (Thermo Scientific, Waltham, Mass., USA). Spectrophotometric and colorimetric measurements in 96-well plates were performed using a SpectraMax M5 spectrometer (Molecular Devices, Sunnyvale, Calif., USA).
(§2) Yeast strains Candida albicans ATCC 10231 (strain A), C. albicans ATCC 64124 (strain B), and C. albicans ATCC MYA-2876(S) (strain C) were kindly provided by Dr. Jon Y. Takemoto (Utah State University, Logan, UT, USA). C. albicans ATCC MYA-90819(R) (strain D), C. albicans ATCC MYA-2310(S) (strain E), C. albicans ATCC 1237(R) (strain F), C. albicans ATCC MYA-1003(R) (strain G), Candida glabrata ATCC 2001 (strain H), Candida krusei ATCC 6258 (strain I), and Candida parapsilosis ATCC 22019 (strain J) were obtained from the American Type Culture Collection (ATCC, Manassas, Va., USA). The (S) and (R) indicate that ATCC reports these strains to be susceptible (S) and resistant (R) to ITC and FLC. The filamentous fungal strains Aspergillus flavus ATCC MYA-3631 (strain K), and Aspergillus terreus ATCC MYA-3633 (strain M) were also obtained from the American Type Culture Collection (ATCC, Manassas, Va., USA). Aspergillus nidulans ATCC 38163 (strain L) was kindly provided by Dr. Jon S. Thorson (University of Kentucky, Lexington, Ky., USA), respectively. Yeast strains were cultured at 35° C. Filamentous fungal strains were cultured at 25° C. and the spores were harvested. All fungal strains were cultured in RPMI 1640 medium (catalog # R6504, Sigma-Aldrich Chemical Co., St. Louis, Mo.) buffered to pH 7.0 with 0.165 M morpholinepropanesulfonic acid (MOPS) buffer (Sigma-Aldrich Chemical Co.).
(§3) The MIC values against fungal strains were determined based on a previously published protocol. MIC values for ebsulfur (2a) analogues against fungal cells were evaluated in 96-well plates as described in the CLSI document M27-A3 with minor modifications. […] Therefore, potato dextrose broth (PDB) was used to grow the yeast inocula of all strains tested, which were later diluted in RPMI 1640 medium to perform determination of MIC values. […] The tested compounds (10 mg/mL) were diluted to the working stocks (500 μg/mL) by addition of DMSO. Two-fold serial dilution of the working stocks was prepared by addition of RPMI 1640 medium (100 μL) and cell suspension (100 μL) to 96-well microtiter plate to achieve final drug and inoculum concentrations ranging from 12.5-0.02 μg/mL and 5×10^3 CFU/mL, respectively. Plates were incubated for 48 h at 35° C.
(§4) MIC assays for the spore-forming filamentous fungi, such as strain A. flavus ATCC MYA-3631 (strain K), were performed in a similar fashion. The filamentous fungal strains were first cultured at 25° C. on potato dextrose agar (PDA) plates for 3-5 days or until confluent. Spores were collected by washing the surface of the agar plates with dd H2O (5 mL) and then isolated the spores by gravity filtration (the spores are H2O soluble). […] Researchers working with spores should wear a facemask to prevent spore inhalation.

[2] = tested on: Aspergillus terreus ATCC MYA-3633 (strain M); test: as above; type: cell-based; settings: strain M; all compounds; spores
Method: as §1, §2, §3, §4

[3] = tested on: Aspergillus flavus ATCC MYA-3631 (strain K); test: as above; type: cell-based; settings: all compounds
Method: as §1, §2, §3, §4

[4] = tested on: C. albicans ATCC MYA-2310(S) (strain E); test: Antifungal MIC determination (CLSI M27-A3, 96-well); type: cell-based, Candida albicans; settings: strain E; compounds 1-4n and AmB; 48 h, RPMI 1640
Method: as §1, §2
as §3, with “C. […]” for “C.”

[5] = tested on: C. albicans ATCC MYA-2876(S) (strain C); test: as above; type: cell-based, Candida albicans; settings: strain C; compounds 1-4n and AmB; 48 h, RPMI 1640
Method: as §1, §2
as §3, with “C. […]” for “C.”

Candida strains (A-J) = test: Antifungal MIC, summary over panel of Candida strains; type: cell-based; settings: Candida strains A-J
Method: as §1, §2
as §3, with “C. […]” for “C.”

[6] = tested on: Candida krusei ATCC 6258 (strain I); test: Antifungal MIC determination (CLSI M27-A3, 96-well); type: cell-based; settings: strain I; compounds 1-4n and AmB; 48 h, RPMI 1640
Method: as §1, §2
as §3, with “C. […]” for “C.”

[7] = tested on: Candida parapsilosis ATCC 22019 (strain J); test: as above; type: cell-based; settings: strain J; compounds 1-4n and AmB; 48 h, RPMI 1640
Method: as §1, §2
as §3, with “C. […]” for “C.”

[8] = tested on: Candida albicans ATCC 10231 (strain A); test: as above; type: cell-based; settings: strain A; compounds 1-4n and AmB; 48 h, RPMI 1640
Method: as §1, §2
as §3, with “C. […]” for “C.”

[9] = tested on: Candida glabrata ATCC 2001 (strain H); test: as above; type: cell-based; settings: strain H; compounds 1-4n and AmB; 48 h, RPMI 1640
Method: as §1, §2
as §3, with “C. […]” for “C.”

[10] = tested on: C. albicans ATCC MYA-1237(R) (strain F); test: microbe, parasite or virus in culture; type: cell-based, Candida albicans; settings: strain F; compounds 1-4n and AmB; 48 h, RPMI 1640
Method: as §1, §2
as §3, with “C. […]” for “C.”

[11] = tested on: C. albicans ATCC MYA-1003(R) (strain G); test: microbe, parasite or virus in culture; type: cell-based, Candida albicans; settings: strain G; compounds 1-4n and AmB; 48 h, RPMI 1640
Method: as §1, §2
as §3, with “C. […]” for “C.”

[12] = tested on: C. albicans ATCC 90819(R) (strain D); test: microbe, parasite or virus in culture; type: cell-based, Candida albicans; settings: strain D; compounds 1-4n and AmB; 48 h, RPMI 1640
Method: as §1, §2
as §3, with “C. […]” for “C.”

[13] = tested on: C. albicans ATCC 64124 (strain B); test: microbe, parasite or virus in culture; type: cell-based, Candida albicans; settings: strain B; compounds 1-4n and AmB; 48 h, RPMI 1640
Method: as §1, §2
as §3, with “C. […]” for “C.”

Structure (SMILES)	MIC-0 [1]	MIC-0 [2]	MIC-0 [3]	MIC-0 [4]	MIC-0 [5]	MIC values against Candida strains, range (Candida strains (A-J))	MIC-0 [6]	MIC-0 [7]	MIC-0 [8]	MIC-0 [9]	MIC-0 [10]	MIC-0 [11]	MIC-0 [12]	MIC-0 [13]
CC(C)c1ccc(-n2sc3ccccc3c2=O)cc1 [Compound 2e]	6.25 µg/mL (≈ 23.2 µM)	6.25 µg/mL (≈ 23.2 µM)	6.25 µg/mL (≈ 23.2 µM)	3.13 µg/mL (≈ 11.6 µM)	3.13 µg/mL (≈ 11.6 µM)	3.13 to 6.25 µg/mL	3.13 µg/mL (≈ 11.6 µM)	3.13 µg/mL (≈ 11.6 µM)	3.13 µg/mL (≈ 11.6 µM)	3.13 µg/mL (≈ 11.6 µM)	6.25 µg/mL (≈ 23.2 µM)	3.13 µg/mL (≈ 11.6 µM)	3.13 µg/mL (≈ 11.6 µM)	3.13 µg/mL (≈ 11.6 µM)
O=c1c2ccccc2sn1C1CCCC1 [Compound 3k]	0.10 µg/mL (≈ 0.456 µM)	0.10 µg/mL (≈ 0.456 µM)	0.20 µg/mL (≈ 0.912 µM)	0.39 µg/mL (≈ 1.78 µM)	0.78 µg/mL (≈ 3.56 µM)	0.39 to 1.56 µg/mL	0.39 µg/mL (≈ 1.78 µM)	1.56 µg/mL (≈ 7.11 µM)	0.39 µg/mL (≈ 1.78 µM)	0.78 µg/mL (≈ 3.56 µM)	0.39 µg/mL (≈ 1.78 µM)	0.78 µg/mL (≈ 3.56 µM)	0.39 µg/mL (≈ 1.78 µM)	1.56 µg/mL (≈ 7.11 µM)
O=c1c2ccccc2sn1CCCc1ccccc1 [Compound 3j]	0.20 µg/mL (≈ 0.742 µM)	0.20 µg/mL (≈ 0.742 µM)	0.78 µg/mL (≈ 2.9 µM)	6.25 µg/mL (≈ 23.2 µM)	6.25 µg/mL (≈ 23.2 µM)	1.56 to 62.5 µg/mL	1.56 µg/mL (≈ 5.79 µM)	6.25 µg/mL (≈ 23.2 µM)	6.25 µg/mL (≈ 23.2 µM)	1.56 µg/mL (≈ 5.79 µM)	6.25 µg/mL (≈ 23.2 µM)	6.25 µg/mL (≈ 23.2 µM)	3.13 µg/mL (≈ 11.6 µM)	3.13 µg/mL (≈ 11.6 µM)
CCCCCCCCCCCCn1sc2ccccc2c1=O [Compound 3d]	>12.5 µg/mL	>12.5 µg/mL	>12.5 µg/mL	>12.5 µg/mL	>12.5 µg/mL	> 12.5 µg/mL	>12.5 µg/mL	>12.5 µg/mL	>12.5 µg/mL	12.5 µg/mL (≈ 39.1 µM)	>12.5 µg/mL	>12.5 µg/mL	>12.5 µg/mL	>12.5 µg/mL
C#Cc1ccc(-n2sc3ccccc3c2=O)cc1 [Compound 2f]	12.5 µg/mL (≈ 49.7 µM)	12.5 µg/mL (≈ 49.7 µM)	12.5 µg/mL (≈ 49.7 µM)	>12.5 µg/mL	>12.5 µg/mL	> 12.5 µg/mL	6.25 µg/mL (≈ 24.9 µM)	12.5 µg/mL (≈ 49.7 µM)	12.5 µg/mL (≈ 49.7 µM)	6.25 µg/mL (≈ 24.9 µM)	12.5 µg/mL (≈ 49.7 µM)	12.5 µg/mL (≈ 49.7 µM)	12.5 µg/mL (≈ 49.7 µM)	12.5 µg/mL (≈ 49.7 µM)
O=c1c2ccccc2sn1-c1cccc(Br)c1 [Compound 2g]	12.5 µg/mL (≈ 40.8 µM)	12.5 µg/mL (≈ 40.8 µM)	12.5 µg/mL (≈ 40.8 µM)	>12.5 µg/mL	12.5 µg/mL (≈ 40.8 µM)	> 12.5 µg/mL	12.5 µg/mL (≈ 40.8 µM)	12.5 µg/mL (≈ 40.8 µM)	>12.5 µg/mL	12.5 µg/mL (≈ 40.8 µM)	12.5 µg/mL (≈ 40.8 µM)	12.5 µg/mL (≈ 40.8 µM)	12.5 µg/mL (≈ 40.8 µM)	12.5 µg/mL (≈ 40.8 µM)
CC(C)Cn1sc2ccccc2c1=O [Compound 3e]	0.02 µg/mL (≈ 0.0965 µM)	0.10 µg/mL (≈ 0.482 µM)	0.20 µg/mL (≈ 0.965 µM)	0.78 µg/mL (≈ 3.76 µM)	0.78 µg/mL (≈ 3.76 µM)	–	0.39 µg/mL (≈ 1.88 µM)	0.78 µg/mL (≈ 3.76 µM)	0.78 µg/mL (≈ 3.76 µM)	1.56 µg/mL (≈ 7.53 µM)	0.78 µg/mL (≈ 3.76 µM)	1.56 µg/mL (≈ 7.53 µM)	0.78 µg/mL (≈ 3.76 µM)	1.56 µg/mL (≈ 7.53 µM)
CCCCCCCCn1sc2ccccc2c1=O [Compound 3c]	≤0.02 µg/mL	≤0.02 µg/mL	≤0.02 µg/mL	1.56 µg/mL (≈ 5.92 µM)	6.25 µg/mL (≈ 23.7 µM)	–	1.56 µg/mL (≈ 5.92 µM)	0.78 µg/mL (≈ 2.96 µM)	6.25 µg/mL (≈ 23.7 µM)	1.56 µg/mL (≈ 5.92 µM)	1.56 µg/mL (≈ 5.92 µM)	1.56 µg/mL (≈ 5.92 µM)	3.13 µg/mL (≈ 11.9 µM)	1.56 µg/mL (≈ 5.92 µM)
O=c1c2ccccc2sn1-c1ccccn1 [Compound 2m]	12.5 µg/mL (≈ 54.8 µM)	12.5 µg/mL (≈ 54.8 µM)	12.5 µg/mL (≈ 54.8 µM)	6.25 µg/mL (≈ 27.4 µM)	12.5 µg/mL (≈ 54.8 µM)	–	6.25 µg/mL (≈ 27.4 µM)	12.5 µg/mL (≈ 54.8 µM)	6.25 µg/mL (≈ 27.4 µM)	12.5 µg/mL (≈ 54.8 µM)	6.25 µg/mL (≈ 27.4 µM)	6.25 µg/mL (≈ 27.4 µM)	6.25 µg/mL (≈ 27.4 µM)	6.25 µg/mL (≈ 27.4 µM)
O=c1c2ccccc2sn1-c1ccc(Cl)cc1 [Compound 2c]	6.25 µg/mL (≈ 23.9 µM)	6.25 µg/mL (≈ 23.9 µM)	6.25 µg/mL (≈ 23.9 µM)	6.25 µg/mL (≈ 23.9 µM)	12.5 µg/mL (≈ 47.8 µM)	–	3.13 µg/mL (≈ 12 µM)	12.5 µg/mL (≈ 47.8 µM)	3.13 µg/mL (≈ 12 µM)	6.25 µg/mL (≈ 23.9 µM)	6.25 µg/mL (≈ 23.9 µM)	12.5 µg/mL (≈ 47.8 µM)	6.25 µg/mL (≈ 23.9 µM)	>12.5 µg/mL
